# Experimental data from patent US6060516A, “N^1 -propargylhydrazines, N^2 -propargylhydrazines and their analogs for the treatment of depression, anxiety and neurodegeneration” (CV Technologies, Inc., priority 1998, dated 2000).
# Key:
# [1] = target: T1, rat brain monoamine oxidase-A (Rattus norvegicus, UniProt P21396); assay: Monoamine oxidase-A inhibiting activity in vitro (radiochemical, 5-hydroxytryptamine substrate, rat brain homogenate); type: biochemical; settings: for inhibition at 100 µM: 1 × 10^-4 M; for inhibition at 10 µM: 1 × 10^-5 M; for inhibition at 1 µM: 1 × 10^-6 M; for inhibition at 0.1 µM: 1 × 10^-7 M; for inhibition at 0.01 µM: 1 × 10^-8 M
# T1 construct: appropriately diluted homogenates of rat brain or liver; from tissue; host or cells: rat brain or liver homogenate
# T1 sequence (P21396 1-526): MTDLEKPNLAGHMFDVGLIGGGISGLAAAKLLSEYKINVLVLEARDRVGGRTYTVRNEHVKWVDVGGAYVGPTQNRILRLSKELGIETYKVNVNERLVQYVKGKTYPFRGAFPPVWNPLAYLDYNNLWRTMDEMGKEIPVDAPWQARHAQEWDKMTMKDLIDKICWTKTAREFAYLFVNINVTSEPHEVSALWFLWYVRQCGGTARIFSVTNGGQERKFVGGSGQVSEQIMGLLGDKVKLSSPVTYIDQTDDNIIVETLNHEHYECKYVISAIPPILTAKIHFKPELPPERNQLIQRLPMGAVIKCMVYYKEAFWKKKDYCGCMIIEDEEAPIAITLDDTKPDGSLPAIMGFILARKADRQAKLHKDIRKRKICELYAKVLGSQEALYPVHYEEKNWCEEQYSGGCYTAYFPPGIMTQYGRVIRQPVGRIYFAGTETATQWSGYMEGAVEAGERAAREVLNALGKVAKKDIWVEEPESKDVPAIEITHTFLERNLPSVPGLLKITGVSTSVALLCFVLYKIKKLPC
# Protocol: Radiolabelled 5-hydroxytryptamine was used as the substrate for monoamine oxidase-A. Various concentrations of the compounds were incubated in appropriately diluted homogenates of rat brain or liver in a 0.2 M potassium phosphate buffer. Incubations proceeded at 37° C. for 10 minutes. Incubation was terminated by the addition of acid and the radiolabelled product (5-hydroxyindoleacetic acid) was extracted and quantified by liquid scintillation counting procedures. Incubations were done in triplicate and incubations containing phenelzine were included for comparison. The percent inhibition of monoamine oxidase-A activity compared to controls without the compounds of the present invention was calculated.
# [2] = test system: rat brain and liver monoamine oxidase-B; assay: Monoamine oxidase-B inhibiting activity ex vivo; type: in vivo
# Protocol: Radiolabelled β-phenylethylamine was employed as a substrate for monoamine oxidase-B. The compounds of interest were either injected intraperitoneally in DMSO or administered by gavage in water for various periods. The animals were killed by decapitation and the brains and livers immediately removed and frozen until assayed for monoamine oxidase-B activity. Tissues were homogenized and appropriately diluted in buffer prior to incubation. Incubations proceeded at 37° C. for 10 minutes. Incubation was terminated by the addition of acid and the radiolabelled product (phenylacetic acid) was extracted and quantified by liquid scintillation counting procedures. Incubations were done in triplicate and incubations containing phenelzine were included for comparison. The percent inhibition of monoamine oxidase-B activity compared to controls containing no drug was calculated.
# Values are the mean ± the standard error based on (n) determinations.
# Oral doses were administered as 75 μmol/kg on day 1, 75 μmol/kg on
# day 2 and the animals were killed 5 hours later.
# [3] = test system: valine, alanine and gamma-aminobutyric acid (GABA) concentrations in rat brain; assay: Brain valine, alanine and gamma-aminobutyric acid (GABA) concentrations; type: in vivo; settings: for GABA / Valine: 150 μmol/kg, 5 hr, ip; for GABA concentrations: doses as high as 150 μmol/kg; for GABA concentrations / elevation of alanine: in words
# Protocol: Effects of various doses of CVT-P040, CVT-P041 and phenelzine on the concentrations of some brain amino acids were evaluated by examining concentrations of gamma-aminobutyric acid (GABA) 5 hours after the injection of the drug. Briefly, rats were injected with CVT-P040 ([…]), vehicle, or phenelzine (150 μmol/kg) and killed 3 or 5 hours later. The brains were removed and divided in half. One half of the brain was frozen in isopentane on dry ice and retained for estimates of GABA concentrations. GABA and other amino acid concentrations were estimated using the method of Wong, J. T. F., Baker, G. B. and Coutts, R. T. (1990), A rapid, sensitive assay for γ-aminobutyric acid in brain using electron-capture gas chromatography, Res. Comm. Chem. Path. Pharmacol. 70: 115-122.
# [4] = target: T2, rat brain monoamine oxidase-B (Rattus norvegicus, UniProt P19643); assay: Monoamine oxidase-B inhibiting activity in vitro (radiochemical, β-phenylethylamine substrate, rat brain homogenate); type: biochemical; settings: for inhibition at 100 µM: 1 × 10^-4 M; for inhibition at 10 µM: 1 × 10^-5 M; for inhibition at 1 µM: 1 × 10^-6 M; for inhibition at 0.1 µM: 1 × 10^-7 M; for inhibition at 0.01 µM: 1 × 10^-8 M
# T2 construct: appropriately diluted homogenates of rat brain or liver; from tissue; host or cells: rat brain or liver homogenate
# T2 sequence (P19643 1-520): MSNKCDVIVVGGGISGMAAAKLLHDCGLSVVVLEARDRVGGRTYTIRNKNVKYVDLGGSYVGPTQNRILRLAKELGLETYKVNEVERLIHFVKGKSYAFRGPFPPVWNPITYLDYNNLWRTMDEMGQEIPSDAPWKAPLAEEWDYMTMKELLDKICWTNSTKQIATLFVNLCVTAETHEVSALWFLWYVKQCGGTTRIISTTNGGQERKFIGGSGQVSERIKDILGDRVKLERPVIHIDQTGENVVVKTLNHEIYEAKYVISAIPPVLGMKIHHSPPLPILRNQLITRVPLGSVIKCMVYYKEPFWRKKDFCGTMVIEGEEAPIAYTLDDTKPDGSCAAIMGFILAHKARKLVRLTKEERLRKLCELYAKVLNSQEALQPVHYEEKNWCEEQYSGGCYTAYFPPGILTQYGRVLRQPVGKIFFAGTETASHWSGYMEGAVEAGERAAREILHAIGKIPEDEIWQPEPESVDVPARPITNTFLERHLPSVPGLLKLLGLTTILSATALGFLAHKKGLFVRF
# Protocol: Radiolabelled β-phenylethylamine was employed as a substrate for monoamine oxidase-B. Various concentrations of the compounds of interest were incubated in appropriately diluted homogenates of rat brain or liver in a 0.2 M potassium phosphate buffer. Incubations proceeded at 37° C. for 10 minutes. Incubation was terminated by the addition of acid and the radiolabelled product (phenylacetaldehyde and phenylacetic acid) was extracted and quantified by liquid scintillation counting procedures. Incubations were done in triplicate and incubations containing phenelzine were included for comparison. The percent inhibition of monoamine oxidase-B activity compared to controls containing no drug was calculated.
# [5] = brain, 5.75 μmol/kg, 5 hr, i.p. in 10% DMSO (Table 4, MAO-B by title)
# [6] = brain, 150 μmol/kg, 5 hr, i.p. in 10% DMSO (Table 4, MAO-B by title)
# [7] = brain, 2 × 75 μmol/kg per os (Table 4, MAO-B by title)
# [8] = liver, 5.75 μmol/kg, 5 hr, i.p. in 10% DMSO (Table 4, MAO-B by title)
# [9] = liver, 2 × 75 μmol/kg per os (Table 4, MAO-B by title)
Structure (SMILES),inhibition at 100 µM [1],inhibition at 10 µM [1],inhibition at 1 µM [1],inhibition at 0.1 µM [1],inhibition at 0.01 µM [1],"% Inhibition of Monoamine Oxidase-B [2, 5]","% Inhibition of Monoamine Oxidase-B [2, 6]","% Inhibition of Monoamine Oxidase-B [2, 7]","% Inhibition of Monoamine Oxidase-B [2, 8]","% Inhibition of Monoamine Oxidase-B [2, 9]",GABA [3],Valine [3],GABA concentrations [3],elevation of alanine [3],inhibition at 100 µM [4],inhibition at 10 µM [4],inhibition at 1 µM [4],inhibition at 0.1 µM [4],inhibition at 0.01 µM [4],also measured
"C#CCN(N)CCc1ccccc1 [CVT-P040, N^1 -propargylphenelzine]",99.5%,99.1%,71.1%,20.6%,0.7%,11.8 ± 5.1%,85.5 ± 1.7%,85.4 ± 2.1%,29.3 ± 2.8%,82.3 ± 2.3%,270 ± 23 µg/g,22.9 ± 1.4 µg/g,did not elevate GABA concentrations,elevation of alanine was not seen,99.7%,97.9%,88.8%,59.8%,19.9%,"% Inhibition of Monoamine Oxidase-B ([2]; brain, 0.58 μmol/kg, 5 hr, i.p. in 10% DMSO (Table 4, MAO-B by title)): -4.7 ± 2.0%; % Inhibition of Monoamine Oxidase-B ([2]; brain, 57.5 μmol/kg, 5 hr, i.p. in 10% DMSO (Table 4, MAO-B by title)): 66.1 ± 6.9%; % Inhibition of Monoamine Oxidase-B ([2]; brain, 173 μmol/kg, 5 hr, i.p. in 10% DMSO (Table 4, MAO-B by title)): 93.2 ± 0.8%; % Inhibition of Monoamine Oxidase-B ([2]; liver, 0.58 μmol/kg, 5 hr, i.p. in 10% DMSO (Table 4, MAO-B by title)): 1.1 ± 5.4%; % Inhibition of Monoamine Oxidase-B ([2]; liver, 57.5 μmol/kg, 5 hr, i.p. in 10% DMSO (Table 4, MAO-B by title)): 64.0 ± 5.5%; % Inhibition of Monoamine Oxidase-B ([2]; liver, 173 μmol/kg, 5 hr, i.p. in 10% DMSO (Table 4, MAO-B by title)): 87.9 ± 1.0%"
"C#CCN(CCc1ccccc1)NC(C)=O [CVT-P041, N^1 -propargyl-N^2 -acetylphenelzine]",79.5%,27.7%,4.2%,1.8%,0.3%,,77.6 ± 0.4%,73.6 ± 2.2%,,97.4 ± 0.2%,253 ± 0 µg/g,20.6 ± 0.5 µg/g,did not elevate GABA concentrations,elevation of alanine was not seen,92.7%,71.3%,28.8%,6.2%,-2%,
"NNCCc1ccccc1 [phenelzine, 1-(2-phenyl) ethylhydrazine, reference compound]",100%,100%,98.9%,62.9%,6.9%,-2.7 ± 5.6%,83.3 ± 2.3%,76.4 ± 3.4%,18.1 ± 5.8%,95.6 ± 1.0%,773 ± 37 µg/g,22.9 ± 0.4 µg/g,,,100%,100%,90.1%,18.3%,6.9%,
